Experimental data reported in paper PMC8262356, “SLC26A6-selective inhibitor identified in a small-molecule screen blocks fluid absorption in small intestine” (JCI Insight, 2021).

Molecular target: T1, ENaC (Homo sapiens, UniProt P37088+P51168+P51170)
T1 construct: endogenous in cells; host or cells: well-differentiated human bronchial epithelial (HBE) cells at air-liquid interface
T1 sequence (P37088 1-669): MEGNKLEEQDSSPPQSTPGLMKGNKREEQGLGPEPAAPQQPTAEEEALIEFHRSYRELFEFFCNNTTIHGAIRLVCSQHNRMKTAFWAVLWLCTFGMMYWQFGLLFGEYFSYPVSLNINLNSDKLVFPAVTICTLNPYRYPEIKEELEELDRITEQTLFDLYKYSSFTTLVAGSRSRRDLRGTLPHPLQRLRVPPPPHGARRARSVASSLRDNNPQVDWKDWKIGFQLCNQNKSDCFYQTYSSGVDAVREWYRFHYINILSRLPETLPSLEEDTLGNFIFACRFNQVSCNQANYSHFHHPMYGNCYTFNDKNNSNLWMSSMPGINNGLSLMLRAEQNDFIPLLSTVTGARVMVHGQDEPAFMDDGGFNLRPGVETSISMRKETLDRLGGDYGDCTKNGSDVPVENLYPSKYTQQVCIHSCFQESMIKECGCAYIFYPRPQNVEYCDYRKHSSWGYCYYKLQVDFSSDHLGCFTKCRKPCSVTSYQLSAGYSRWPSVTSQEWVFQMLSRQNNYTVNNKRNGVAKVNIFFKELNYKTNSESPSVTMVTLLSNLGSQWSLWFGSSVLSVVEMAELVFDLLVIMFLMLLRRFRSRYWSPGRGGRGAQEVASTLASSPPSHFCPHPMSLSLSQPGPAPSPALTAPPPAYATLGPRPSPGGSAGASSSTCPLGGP
T1 sequence (P51168 1-640): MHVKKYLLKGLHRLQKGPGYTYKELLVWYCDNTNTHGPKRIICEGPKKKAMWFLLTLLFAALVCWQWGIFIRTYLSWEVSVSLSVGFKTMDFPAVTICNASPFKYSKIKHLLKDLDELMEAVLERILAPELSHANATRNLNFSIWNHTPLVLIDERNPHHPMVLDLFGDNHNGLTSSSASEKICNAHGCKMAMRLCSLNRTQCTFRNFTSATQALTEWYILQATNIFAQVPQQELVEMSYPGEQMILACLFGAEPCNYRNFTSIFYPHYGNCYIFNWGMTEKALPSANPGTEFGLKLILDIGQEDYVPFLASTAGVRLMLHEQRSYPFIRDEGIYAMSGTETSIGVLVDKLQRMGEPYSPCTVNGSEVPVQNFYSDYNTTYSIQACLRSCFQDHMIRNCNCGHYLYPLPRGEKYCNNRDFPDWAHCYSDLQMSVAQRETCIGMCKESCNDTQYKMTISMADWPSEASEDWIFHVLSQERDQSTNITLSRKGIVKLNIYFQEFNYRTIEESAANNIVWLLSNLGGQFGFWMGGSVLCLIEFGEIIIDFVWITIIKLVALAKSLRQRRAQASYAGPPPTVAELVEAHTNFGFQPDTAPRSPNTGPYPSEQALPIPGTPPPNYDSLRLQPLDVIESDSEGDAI
T1 sequence (P51170 1-649): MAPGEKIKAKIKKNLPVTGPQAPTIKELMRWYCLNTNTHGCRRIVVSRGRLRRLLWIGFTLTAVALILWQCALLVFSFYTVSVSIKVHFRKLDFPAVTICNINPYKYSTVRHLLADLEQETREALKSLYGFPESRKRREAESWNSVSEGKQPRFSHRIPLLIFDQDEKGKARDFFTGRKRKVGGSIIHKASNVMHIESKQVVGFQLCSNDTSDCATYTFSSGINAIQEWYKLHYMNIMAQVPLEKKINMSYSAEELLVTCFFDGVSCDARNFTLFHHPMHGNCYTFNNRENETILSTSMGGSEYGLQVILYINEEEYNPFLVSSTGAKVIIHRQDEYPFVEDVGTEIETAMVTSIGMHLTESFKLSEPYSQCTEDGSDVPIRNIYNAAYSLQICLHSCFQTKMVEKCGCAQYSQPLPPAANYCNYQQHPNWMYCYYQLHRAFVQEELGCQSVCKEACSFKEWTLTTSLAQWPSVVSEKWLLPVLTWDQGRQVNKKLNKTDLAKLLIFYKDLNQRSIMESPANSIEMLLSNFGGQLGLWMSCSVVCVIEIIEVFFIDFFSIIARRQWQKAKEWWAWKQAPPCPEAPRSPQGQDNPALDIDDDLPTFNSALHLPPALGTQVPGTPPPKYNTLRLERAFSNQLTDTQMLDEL
Assay: Short-circuit current in well-differentiated HBE cells, amiloride response
Format: cell-based
Details: 25 μM pretreatment
Experimental: PAT1inh-B01 selectivity was studied by testing its effects on related SLC26A family anion transporters and the Cl^– channel TMEM16A. These measurements used a similar Cl^–/I^– exchange protocol, but FRT cells separately expressed each of the SLC26A family members or TMEM16A. […] PAT1inh-B01 selectivity was also tested by short-circuit current (Isc) in well-differentiated human bronchial epithelial (HBE) cells, which have a complex ion transport mechanism that includes cystic fibrosis transmembrane conductance regulator (CFTR), epithelial Na^+ channel (ENaC), and Ca^+2-activated chloride channels (CaCCs) ([13]). […] Potential PAT1inh-B01 cytotoxicity was studied in FRT cells.
Figure 3 PAT1inh-B01 selectivity and cytotoxicity. […] Cl^–/I^– exchange or I^– influx measured in FRT cells coexpressing YFP and SLC26A isoforms or TMEM16A, with data shown for 25 μM PAT1inh-B01, DMSO vehicle control, and 500 μM niflumic acid (positive control for SLC26A transporters) or 10 μM TMinh-23 (positive control for TMEM16A). […] (C) (left) Short-circuit current (Isc) in well-differentiated HBE cells measured in the absence (top) and presence (bottom) of 25 μM PAT1inh-B01. […]
YFP-based cellular assays of slc26a3, slc26a4, SLC26A9, and TMEM16A function were performed as described previously ([7]). […] The activities of ENaC, CFTR, and CaCC were determined using well-differentiated HBE cells as described previously ([13]). […]

Cc1c(Br)c(C(F)(F)F)nn1CC(=O)N1CCc2nc3cc(-c4ccccc4)[nH]n3c(=O)c2C1 [PAT1inh-B01]
effect on ENaC activity (Isc response to amiloride): no significant effect
